# Assay results published in patent publication US9266835B2, “Quinoline derivatives useful as CB-1 inverse agonists” (JANSSEN PHARMACEUTICA NV, priority 2014, dated 2016).
# Tests used:
# [1] = target: Human CB1R (Cannabinoid receptor 1) (Homo sapiens (Human), UniProt P21554); assay: CB-1 in vitro cAMP assay (HTRF), inverse agonism; assay type: cell-based; conditions: mean where tested more than once
# Source text: (§1) CB1 and CB2 receptors are Gi-coupled GPCR. Activation of CB1 and CB2 receptors results in a decrease in cAMP production. An inverse agonist of the CB1 or CB2 receptor results in the opposite effect, an increase of cAMP production. The principle of this assay is based on HTRF® technology (Homogeneous Time-Resolved Fluorescence). The method is a competitive immunoassay between native cAMP produced by cells and the cAMP labeled with the fluorophore d2. The tracer binding is quantified by a Mab anti-cAMP labeled with Eu3+TBP-NHS Cryptate (supplied as part of the assay kit). The specific signal (i.e. energy transfer) is inversely proportional to the concentration of cAMP in the standard or sample.
# (§2) Human CB1R (Cannabinoid receptor 1) was stably transfected in HEK-293 cells (DiscoveRx, cat: 93-0200C1). Human CB2R (Cannabinoid receptor 2) was stably transfected in HEK-293 cells (DiscoveRx, cat: 93-0201C1). Cell cultures were maintained in media: DMEM (Invitrogen Cat#12430-054) supplemented with 10% HI FBS (Invitrogen Cat#16140-071), 1% L-glutamine (Invitrogen Cat#25030-081), 0.2 mg/ml Hygromycin B (Invitrogen Cat#10687-010), 600 μg/mL G418 (Invitrogen Cat#10131-035), and 1X Penn/Strep (Invitrogen 15140-122). After cell expansion, aliquots were cryo-stored in media containing 5% DMSO (Pierce Cat#20684).
# (§3) One day prior to experiments media was warmed to 37° C. and the cryo-stored cells were thawed in a 37° C. water bath. The cells were then added to media (10× volume) and the mixture was centrifuged at 1000 RPM for 5 min. The supernate was removed and the cells were re-suspended in media. A sample of the cell suspension was evaluated on a Cedex XS automated cell counter (Innovatis Systems) to determine viable cells/ml. Additional media was added to the cells to achieve a final cell density of 4E5 cells/mL. The cells were then plated into 384 well PDL white solid bottom plates (Greiner, Cat#781945) at 20 μL per well using a Multidrop (Thermo Scientific). Cells were removed from Row P (location of cAMP standards). Two columns of cells were plated into a clear bottom 384 well PDL coated plate (Greiner, Cat#781944) to view confluence the day of the assay. The cell plates were lidded and stored for 15 minutes in a hood, then transferred to an incubator (37° C., 5% CO2, 95% humidity) overnight.
# (§4) DMSO was added to all wells of 384 well V bottom polystyrene plate (Greiner, Cat#781280) except to columns 1 and 13, rows 0 and P and wells M13-M23 and N13-N23. Test compounds (60 μL, 10 mM) were added to Column 1 and 13 (A1 through N1 and A13 through L13). Test compounds were serially diluted 1/3 by transferring and mixing 20 μl sample with 40 μL DMSO.
# (§5) DMSO (40 μL) was added to wells of 384 well V bottom polystyrene plate: O2 through O11, M14 through M23, N14 through N23, and O14 through O23. AM630 (also known as [6-iodo-2-methyl-1-[2-(4-morpholinyl)ethyl]-1H-indol-3-yl](4-methoxyphenyl)-methanone, Cayman Chemical, Cat#10006974) (60 μL, 10 mM) was added to 01; and 1-(2,4-dichlorophenyl)-7-[(4-fluorophenyl)methylene]-4,5,6,7-tetrahydro-N-1-piperidinyl-1H-indazole-3-carboxamide (60 μL, 10 mM) was added to N13. The control was serially diluted 1/3 by transferring and mixing 20 μl sample with 40 μL DMSO. This process resulted 11 doses per control, 10 mM to […].
# (§6) Cells plated the day prior to the assay in clear bottom plates were viewed on an inverse microscope to ensure confluency in the range of 60-75%. […]
# [2] = target: Human CB2R (Cannabinoid receptor 2) (Homo sapiens (Human), UniProt P34972); assay: CB-2 in vitro cAMP assay (HTRF), inverse agonism; assay type: cell-based; conditions: mean where tested more than once
# Human CB2R (Cannabinoid receptor 2), sequence (P34972 whole entry): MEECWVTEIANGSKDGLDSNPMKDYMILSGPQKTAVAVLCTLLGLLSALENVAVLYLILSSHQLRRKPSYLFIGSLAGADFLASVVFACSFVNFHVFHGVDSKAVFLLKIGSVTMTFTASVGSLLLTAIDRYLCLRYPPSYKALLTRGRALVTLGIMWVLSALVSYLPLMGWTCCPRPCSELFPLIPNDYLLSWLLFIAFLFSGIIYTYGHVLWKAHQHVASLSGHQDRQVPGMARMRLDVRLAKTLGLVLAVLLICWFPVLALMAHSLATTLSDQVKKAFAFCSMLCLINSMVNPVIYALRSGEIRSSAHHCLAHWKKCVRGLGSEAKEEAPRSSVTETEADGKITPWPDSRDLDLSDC
# Source text: as §1, §2, §3, §4, §5, §6
# Human CB1R (Cannabinoid receptor 1), sequence (P21554 whole entry): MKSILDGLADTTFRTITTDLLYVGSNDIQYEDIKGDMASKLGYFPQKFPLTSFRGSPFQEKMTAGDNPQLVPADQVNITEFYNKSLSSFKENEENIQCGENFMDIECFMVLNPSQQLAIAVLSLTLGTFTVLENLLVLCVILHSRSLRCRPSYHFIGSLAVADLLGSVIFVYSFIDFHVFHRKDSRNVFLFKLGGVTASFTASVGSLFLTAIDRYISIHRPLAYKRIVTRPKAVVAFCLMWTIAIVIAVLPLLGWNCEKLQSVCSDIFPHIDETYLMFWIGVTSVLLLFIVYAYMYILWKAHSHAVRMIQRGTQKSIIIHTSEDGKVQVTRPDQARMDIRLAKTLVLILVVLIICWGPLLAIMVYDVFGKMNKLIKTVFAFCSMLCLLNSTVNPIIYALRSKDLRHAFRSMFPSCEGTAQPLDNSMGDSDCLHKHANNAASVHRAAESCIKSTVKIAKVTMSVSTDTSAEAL
Structure (SMILES),EC50 [1],EC50 [2]
"OC(c1ccc(Cl)cc1)(c1ccc2nccc(/C=C\c3ccccc3)c2c1)c1cscn1 (mixture of isomers) [Compound 516, (Z)-(4-chlorophenyl)(4-styrylquinolin-6-yl)(thiazol-4-yl)methanol]",3270 nM,200 nM
"O=c1cc(CCc2cccc(Cl)c2)c2cc(C(O)(c3ccc(Cl)cc3)c3nccs3)ccc2[nH]1 (stereo not shown) [Compound 8, 4-(3-chlorophenethyl)-6-((4-chlorophenyl)(hydroxy)(thiazol-2-yl)methyl)quinolin-2(1H)-one]",876 nM,> 10000 nM
"O=c1cc(CCc2cccc(Cl)c2)c2cc(C(c3ccc(Cl)cc3)c3nccs3)ccc2[nH]1 (stereo not shown) [Compound 11, 4-(3-chlorophenethyl)-6-((4-chlorophenyl)(thiazol-2-yl)methyl)quinolin-2(1H)-one]",121 nM,> 10000 nM
"CC(C)(C)OC(=O)N1CC=C(c2cc(=O)[nH]c3ccc(C(c4ccc(Cl)cc4)c4ccc(Cl)cc4)cc23)CC1 [Compound 13, tert-Butyl 4-{6-[bis(4-chlorophenyl)methyl]-2-oxo-1,2-dihydroquinolin-4-yl}-3,6-dihydropyridine-1(2H)-carboxylate]",403 nM,> 10000 nM
"O=c1cc(/C=C/c2cccc(F)c2)c2cc(C(c3ccc(Cl)cc3)c3ccc(Cl)cc3)ccc2[nH]1 [Compound 15, 6-[Bis(4-chlorophenyl)methyl]-4-[(E)-2-(3-fluorophenyl)ethenyl]quinolin-2(1H)-one]",702 nM,660 nM
"O=c1cc(/C=C/c2cccc(F)c2)c2cc(C(c3ccc(Cl)cc3)c3ccsc3)ccc2[nH]1 (stereo not shown) [Compound 16, 6-[(4-Chlorophenyl)(thiophen-3-yl)methyl]-4-[(E)-2-(3-fluorophenyl)ethenyl]quinolin-2(1H)-one]",83 nM,90 nM
"O=c1cc(/C=C/c2ccc(C(F)(F)F)cc2)c2cc(C(c3ccc(Cl)cc3)c3ccc(Cl)s3)ccc2[nH]1 (stereo not shown) [Compound 29, 6-[(4-Chlorophenyl)(5-chlorothiophen-2-yl)methyl]-4-{(E)-2-[4-(trifluoromethyl)phenyl]-ethenyl}quinolin-2(1H)-one]",759 nM,> 10000 nM
"O=c1cc(/C=C/c2ccccc2)c2cc(C(c3ccc(Cl)cc3)c3ccc(Cl)s3)ccc2[nH]1 (stereo not shown) [Compound 31, 6-[(4-Chlorophenyl)(5-chlorothiophen-2-yl)methyl]-4-[(E)-2-phenylethenyl]quinolin-2(1H)-one]",2280 nM,> 10000 nM
"O=c1cc(/C=C/c2cccc(F)c2)c2cc(C(c3ccccc3)c3ccc(Cl)cc3)ccc2[nH]1 (stereo not shown) [Compound 32, 6-[(4-Chlorophenyl)(phenyl)methyl]-4-[(E)-2-(3-fluorophenyl)ethenyl]quinolin-2(1H)-one]",3200 nM,> 10000 nM
"O=c1cc(/C=C/c2ccc(Cl)cc2)c2cc(C(c3ccccc3)c3ccc(Cl)cc3)ccc2[nH]1 (stereo not shown) [Compound 34, 4-[(E)-2-(4-Chlorophenyl)ethenyl]-6-[(4-chlorophenyl)(phenyl)methyl]quinolin-2(1H)-one]",1460 nM,> 10000 nM
"O=c1cc(N2CCN(S(=O)(=O)C(F)(F)F)CC2)c2cc(C(c3ccc(Cl)cc3)c3nccs3)ccc2[nH]1 (stereo not shown) [Compound 35, 6-[(4-Chlorophenyl)(1,3-thiazol-2-yl)methyl]-4-{4-[(trifluoromethyl)sulfonyl]-piperazin-1-yl}quinolin-2(1H)-one]",322 nM,> 10000 nM

# Other lines, results leading:
EC50 [1],EC50 [2],Structure (SMILES)
169 nM,> 10000 nM,"Cn1c(=O)cc(CCc2cccc(Cl)c2)c2cc(C(c3ccc(Cl)cc3)c3nccs3)ccc21 (stereo not shown) [Compound 9, 4-(3-chlorophenethyl)-6-((4-chlorophenyl)(thiazol-2-yl)methyl)-1-methylquinolin-2(1H)-one]"
254 nM,> 10000 nM,"O=C(N1CC=C(c2cc(=O)[nH]c3ccc(C(c4ccc(Cl)cc4)c4ccc(Cl)cc4)cc23)CC1)C(F)(F)F [Compound 14, 6-(bis(4-chlorophenyl)methyl)-4-(1-(2,2,2-trifluoroacetyl)-1,2,3,6-tetrahydropyridin-4-yl)quinolin-2(1H)-one]"
827 nM,80 nM,"O=c1cc(C2=CCN(S(=O)(=O)C(F)(F)F)CC2)c2cc(C(c3ccc(Cl)cc3)c3ccc(Cl)cc3)ccc2[nH]1 [Compound 17, 6-(bis(4-chlorophenyl)methyl)-4-(1-((trifluoromethyl)sulfonyl)-1,2,3,6-tetrahydropyridin-4-yl)quinolin-2(1H)-one]"
875 nM,> 10000 nM,"O=c1cc(/C=C\c2ccc(C(F)(F)F)cc2)c2cc(C(c3ccc(Cl)cc3)c3cccs3)ccc2[nH]1 (stereo not shown) [Compound 18, 6-[(4-Chlorophenyl)(thiophen-2-yl)methyl]-4-{(Z)-2-[4-(trifluoromethyl)phenyl]-ethenyl}quinolin-2(1H)-one]"
59 nM,> 10000 nM,"O=c1cc(/C=C/c2ccc(C(F)(F)F)cc2)c2cc(C(c3ccc(Cl)cc3)c3cccs3)ccc2[nH]1 (stereo not shown) [Compound 19, 6-[(4-Chlorophenyl)(thiophen-2-yl)methyl]-4-{(E)-2-[4-(trifluoromethyl)phenyl]-ethenyl}quinolin-2(1H)-one]"
4140 nM,> 10000 nM,"O=c1cc(/C=C/c2ccccc2)c2cc(C(c3ccc(Cl)cc3)c3cccs3)ccc2[nH]1 (stereo not shown) [Compound 21, 6-[(4-Chlorophenyl)(thiophen-2-yl)methyl]-4-[(E)-2-phenylethenyl]quinolin-2(1H)-one]"
816 nM,> 10000 nM,"O=c1cc(/C=C/c2ccccc2)c2cc(C(c3ccc(Cl)cc3)c3nccs3)ccc2[nH]1 (stereo not shown) [Compound 25, (E)-6-((4-chlorophenyl)(thiazol-2-yl)methyl)-4-styrylquinolin-2(1H)-one]"
333 nM,> 10000 nM,"O=c1cc(/C=C/c2cccc(C(F)(F)F)c2)c2cc(C(c3ccc(Cl)cc3)c3cccs3)ccc2[nH]1 (stereo not shown) [Compound 26, 6-[(4-Chlorophenyl)(thiophen-2-yl)methyl]-4-{(E)-2-[3-(trifluoromethyl)phenyl]-ethenyl}quinolin-2(1H)-one]"
443 nM,> 10000 nM,"Cc1ccc(/C=C/c2cc(=O)[nH]c3ccc(C(c4ccc(Cl)cc4)c4cccs4)cc23)cc1 (stereo not shown) [Compound 27, 6-[(4-Chlorophenyl)(thiophen-2-yl)methyl]-4-[(E)-2-(4-methylphenyl)ethenyl]-quinolin-2(1H)-one]"
1380 nM,> 10000 nM,"O=c1cc(/C=C/c2cccc(F)c2)c2cc(C(c3ccc(Cl)cc3)c3ccc(Cl)s3)ccc2[nH]1 (stereo not shown) [Compound 30, 6-[(4-Chlorophenyl)(5-chlorothiophen-2-yl)methyl]-4-[(E)-2-(3-fluorophenyl)ethenyl]quinolin-2(1H)-one]"
1210 nM,> 10000 nM,"O=c1cc(/C=C/c2ccc(C(F)(F)F)cc2)c2cc(C(c3ccccc3)c3ccc(Cl)cc3)ccc2[nH]1 (stereo not shown) [Compound 33, 6-[(4-Chlorophenyl)(phenyl)methyl]-4-{(E)-2-[4-(trifluoromethyl)phenyl]-ethenyl}quinolin-2(1H)-one]"
2330 nM,,"CC(C)(C)OC(=O)N1CC(CNc2cc(=O)[nH]c3ccc(C(c4ccc(Cl)cc4)c4nccs4)cc23)C1 (stereo not shown) [Compound 42, tert-Butyl 3-[({6-[(4-chlorophenyl)(1,3-thiazol-2-yl)methyl]-2-oxo-1,2-dihydroquinolin-4-yl}amino)methyl]azetidine-1-carboxylate]"
> 10000 nM,,"O=c1cc(NCC2CNC2)c2cc(C(c3ccc(Cl)cc3)c3nccs3)ccc2[nH]1 (stereo not shown) [Compound 43, 4-[(Azetidin-3-ylmethyl)amino]-6-[(4-chlorophenyl)(1,3-thiazol-2-yl)methyl]quinolin-2(1H)-one]"
